Assay [1] has as its system HCT-116. Nature of the assay: Cytotoxicity against human HCT116 cells upto 150 uM by MTS assay. The class given is functional, cell-based. Background: Tetrazolium dyes change colour on reduction, which living cells bring about.
For assay [2], the system named is HCT-116. The assay is described as follows: Cytotoxicity against human HCT116 cells by MTS assay. The class given is functional, cell-based.

This passage reports Activity and IC50 results from ChEMBL document CHEMBL1141249, “Lucentamycins A-D, cytotoxic peptides from the marine-derived actinomycete Nocardiopsis lucentensis” (J Nat Prod, 2007).

Activity calls are given as the source filed them. The rule behind the calls is not given here.

Turning to `C/C=C1\CN(C(=O)[C@H](CCCCNC(=N)N)NC(=O)C=C(C)C)[C@H](C(=O)N[C@@H](CC(C)C)C(=O)O)[C@@H]1C`, the outcome in assay [1] was inactive.

Consider `C/C=C1\CN(C(=O)[C@H](CCCCNC(=N)N)NC(=O)CC(C)C)[C@H](C(=O)N[C@@H](CC(C)C)C(=O)O)[C@@H]1C`, for which, in assay [1], the outcome was inactive.

Consider `C/C=C1\CN(C(=O)[C@H](CCCCNC(=N)N)NC(=O)c2ccccc2)[C@H](C(=O)N[C@@H](CC(C)C)C(=O)O)[C@@H]1C` [LUCENTAMYCIN A], for which the IC50 – broadly, the midpoint of a concentration-inhibition curve – in assay [2] came out at 0.2 µM.

Compound `C/C=C1/CN(C(=O)[C@H](CCCCNC(=N)N)NC(=O)CC(C)C)[C@H](C(=O)N[C@@H](Cc2c[nH]c3ccccc23)C(=O)O)[C@@H]1C` [LUCENTAMYCIN B] showed an IC50 in assay [2] of 11 µM.
